{"source": "patent US20220127232A1", "about": "“HISTONE ACETYLTRANSFERASE MODULATORS AND COMPOSITIONS AND USES THEREOF” (The Trustees of Columbia University in the City of New York, priority 2019, published 2022)", "key": {"mice [1]": {"system": "mice", "experiment": "Contextual fear memory", "assay_type": "in vivo", "description": "FIG. 28 is a graph showing that RA010115 rescues oTau- and oAβ-induced defects in contextual fear memory. There is statistical significance when comparing all groups during testing for contextual fear memory at 24 hrs after the electric shock (ANOVA among all groups: F(5, 57)=5.558 p=0.0003). […] The performance was not impaired when mice were treated with only RA010115 or vehicle."}, "p300": {"molecular_target": "p300 (Homo sapiens, UniProt Q09472)", "sequence (Q09472 whole entry, species assumed)": "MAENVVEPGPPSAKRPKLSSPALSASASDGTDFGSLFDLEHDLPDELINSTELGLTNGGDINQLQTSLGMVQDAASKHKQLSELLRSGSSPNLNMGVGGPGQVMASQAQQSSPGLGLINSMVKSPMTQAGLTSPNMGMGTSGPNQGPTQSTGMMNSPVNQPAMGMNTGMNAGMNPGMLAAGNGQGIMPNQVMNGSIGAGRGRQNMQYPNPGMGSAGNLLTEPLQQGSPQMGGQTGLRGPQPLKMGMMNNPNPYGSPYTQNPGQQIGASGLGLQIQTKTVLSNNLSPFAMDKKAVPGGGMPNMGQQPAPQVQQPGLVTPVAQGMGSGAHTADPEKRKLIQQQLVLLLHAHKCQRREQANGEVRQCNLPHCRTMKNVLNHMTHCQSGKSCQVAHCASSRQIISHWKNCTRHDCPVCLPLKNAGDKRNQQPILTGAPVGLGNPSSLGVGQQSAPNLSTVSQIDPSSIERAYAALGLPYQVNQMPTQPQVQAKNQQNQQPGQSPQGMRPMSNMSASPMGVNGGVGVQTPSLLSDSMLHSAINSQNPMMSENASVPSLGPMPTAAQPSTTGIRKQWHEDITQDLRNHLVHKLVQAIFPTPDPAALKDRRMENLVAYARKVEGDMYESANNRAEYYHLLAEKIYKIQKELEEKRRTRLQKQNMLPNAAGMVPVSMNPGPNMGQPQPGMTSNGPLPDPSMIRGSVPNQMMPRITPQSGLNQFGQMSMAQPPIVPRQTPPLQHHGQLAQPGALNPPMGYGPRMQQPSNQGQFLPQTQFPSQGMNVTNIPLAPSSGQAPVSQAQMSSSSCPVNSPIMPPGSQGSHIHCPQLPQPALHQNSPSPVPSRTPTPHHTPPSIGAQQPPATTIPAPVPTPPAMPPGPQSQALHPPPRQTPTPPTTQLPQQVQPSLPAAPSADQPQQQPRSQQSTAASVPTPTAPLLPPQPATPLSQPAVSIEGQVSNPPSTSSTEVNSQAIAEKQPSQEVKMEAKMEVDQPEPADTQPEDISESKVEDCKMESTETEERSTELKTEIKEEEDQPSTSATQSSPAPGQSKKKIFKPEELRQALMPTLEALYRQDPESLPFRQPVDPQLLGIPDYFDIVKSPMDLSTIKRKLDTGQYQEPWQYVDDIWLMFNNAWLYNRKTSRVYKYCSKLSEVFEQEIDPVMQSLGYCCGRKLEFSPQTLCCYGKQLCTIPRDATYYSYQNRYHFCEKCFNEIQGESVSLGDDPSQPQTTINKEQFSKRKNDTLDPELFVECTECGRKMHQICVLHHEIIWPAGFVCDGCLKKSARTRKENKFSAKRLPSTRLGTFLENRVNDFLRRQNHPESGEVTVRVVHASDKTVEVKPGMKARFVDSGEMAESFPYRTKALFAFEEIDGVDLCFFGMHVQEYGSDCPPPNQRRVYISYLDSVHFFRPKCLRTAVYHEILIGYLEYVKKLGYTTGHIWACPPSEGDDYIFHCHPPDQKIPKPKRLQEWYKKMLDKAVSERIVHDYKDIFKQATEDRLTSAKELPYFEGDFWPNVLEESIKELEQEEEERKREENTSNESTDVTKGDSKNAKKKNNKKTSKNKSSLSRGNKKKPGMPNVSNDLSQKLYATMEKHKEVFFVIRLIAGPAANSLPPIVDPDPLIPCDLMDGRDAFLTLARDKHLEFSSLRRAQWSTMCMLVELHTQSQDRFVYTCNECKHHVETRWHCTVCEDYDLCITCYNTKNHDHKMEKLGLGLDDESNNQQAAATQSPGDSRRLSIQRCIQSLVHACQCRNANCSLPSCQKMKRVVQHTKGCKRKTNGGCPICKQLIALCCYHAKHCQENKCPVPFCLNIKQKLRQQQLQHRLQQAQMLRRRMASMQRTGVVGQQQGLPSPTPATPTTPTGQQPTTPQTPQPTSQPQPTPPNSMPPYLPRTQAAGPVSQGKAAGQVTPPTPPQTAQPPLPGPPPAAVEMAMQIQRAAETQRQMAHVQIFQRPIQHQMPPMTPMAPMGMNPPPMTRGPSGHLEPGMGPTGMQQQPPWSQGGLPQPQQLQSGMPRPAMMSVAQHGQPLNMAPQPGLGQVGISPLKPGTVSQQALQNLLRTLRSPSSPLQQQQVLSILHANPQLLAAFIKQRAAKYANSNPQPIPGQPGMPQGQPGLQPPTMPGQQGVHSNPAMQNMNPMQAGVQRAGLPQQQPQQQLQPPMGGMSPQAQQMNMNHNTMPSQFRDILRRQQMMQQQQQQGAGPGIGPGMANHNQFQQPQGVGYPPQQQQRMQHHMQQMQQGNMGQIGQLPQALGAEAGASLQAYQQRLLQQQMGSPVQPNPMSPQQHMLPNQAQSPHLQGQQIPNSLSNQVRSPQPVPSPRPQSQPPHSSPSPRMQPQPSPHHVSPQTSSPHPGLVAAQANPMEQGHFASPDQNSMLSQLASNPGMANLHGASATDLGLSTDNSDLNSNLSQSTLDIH", "experiment": "Histone Acetyltransferase (HAT) in vitro acetylation assay, western blot of H3K27ac / H3K18ac", "assay_type": "biochemical", "conditions": "compound in DMSO", "description": "The aim of the in vitro acetylation assay is to measure the enzymatic activity of the various compounds towards p300.\nFirst, the drug is prepared:\nSecond, dilute p300 in AM1 buffer to a concentration of 40 ng/μL (final concentration in the reaction 20 ng/μL). This is accomplished by diluting 1 μL of p300 (at 0.4 μg/μL) into […] of AM1 buffer.\nThird, prepare the Master Mix. Prepare the Master Mix in low protein binding tubes (ThermoFisher Cat. No. 90410), 20 μL system.\nIncubate reactions at 30° C. for 30 minutes.\nIncubate reactions at 30° C. for 1 hour.\nFourth, perform the western blot assay. • Add 6.7 μL of Laemmli Sample Buffer 4× (Bio-Rad Laboratories Cat. No. 161-0737) for each reaction and boil samples at 95° C. for 5 min. • Charge 10 μL for each sample in 2 Tris Glycine 4-15% gels (Bio-Rad Laboratories Cat. No. 456-1086). Running Buffer: Tris-Glycine 1× (pour in the cell up to the writing “2 gels”). • Run at 90 V for 1 hour (until the gel front reaches the green line of cell). • Semi-dry transfer with Trans-Blot® Turbo™ Blotting System from Bio-Rad Laboratories (Trans-Blot® Turbo™ RTA midi PVDF transfer kit Cat. No1704275). • Activate PVDF membrane in methanol for 5 minutes and then wet in Trans-Blot® Turbo™ transfer buffer. • Wet stacks in transfer buffer. • Transfer at 23 V 1.3 A for 7 minutes. • Blocking buffer: 5% Non-Fat milk in TBST (tween 0.1%) 1 hour at room temperature. • Cut the membranes to get Ac-His 3 at 17 kDa and p300 at 300 kDa. • Incubate with primary antibodies overnight at 4° C. • The day after, make 3 washes in TBST (Tween 0.1%) of 10 minutes. • Incubate with secondary antibody at room temperature for 1 hour. • Make 3 washes in TBST (Tween 0.1%) of 5 minutes. • Incubate membranes with ECL (SuperSignal West Dura Extended Duration Substrate from ThermoFisher) for 5 minutes at room temperature. • Acquire the image with ChemiDoc Odyssey Fc 2 minutes.\nTo detect total H3 (loading control), strip the membranes with Restore™ Western Blot Stripping Buffer according to the manufacturer protocol.\nVarious compounds were tested for enzymatic activity with respect to Lys 18 and Lys 27. EC50 is indicated for Activators and IC50 for inhibitors respectively.\nFIGS. 1A to 25B are graphs showing the lysine residue acetylation as a function of concentration for the compounds set forth in Table 3. The shaded area corresponds to the average values of lysine residue acetylation (continuous line) and their standard error range measured in the absence of compound and DMSO. The number of replicates is represented by “n”."}, "mice [2]": {"system": "mice", "experiment": "2 day radial arm water maze (RAWM), spatial short-term memory", "assay_type": "in vivo", "description": "Synaptic plasticity is thought to underlie memory formation. RA010115 was also tested in assays aimed at determining whether the compound can be beneficial to two types of memory, short-term spatial memory that can tested through the 2 day radial arm water maze, and contextual fear memory, a type of associative memory that depends upon hippocampal function and is impaired in AD patients. FIG. 27 is a graph showing that RA010115 rescues oTau- and oAβ-induced defects in the 2-day radial arm water maze test of spatial short-term memory. The performance in the RAWM was impaired in mice administered with oAβ (200 nM) oTau (500 nM). […] The performance was not impaired when mice were treated with only RA010115 or vehicle. (ANOVA for repeated measures among all groups at day 2: F(5, 65)=7.092, p<0.0001. One-way ANOVA for block 10: F(5, 65)=7.385, p<0.0001; Bonferroni's p<0.0001 for both oAβ vs. vehicle and oTau vs. vehicle; oAβ vs RA010115 plus oAβ p<0.001 and for oTau vs RA010115 plus oTau p<0.05."}, "[3]": {"experiment": "Stability in human liver microsomes", "assay_type": "in vitro ADME", "conditions": "for microsomal CLint at 1 μM / half-life at 1 μM: both sexes, human, liver microsomes, pH 7.4, human liver microsomes", "description": "Some compounds were tested for stability in human liver microsomes as shown below in Table 2.\nMixed-gender human liver microsomes (Lot #1010420) were purchased from XenoTech. The reaction mixture, minus NADPH, was prepared as described below. The test article was added into the reaction mixture at a final concentration of 1 μM. The control compound, testosterone, was run simultaneously with the test article in a separate reaction. An aliquot of the reaction mixture (without cofactor) was equilibrated in a shaking water bath at 37° C. for 3 minutes. The reaction was initiated by the addition of the cofactor, and the mixture was incubated in a shaking water bath at 37° C. Aliquots (100 μL) were withdrawn at 0, 10, 20, 30, and 60 minutes. Test article and testosterone samples were immediately combined with 400 μL of ice-cold 50/50 acetonitrile (ACN)/H2O containing 0.1% formic acid and internal standard to terminate the reaction. The samples were then mixed and centrifuged to precipitate proteins. All samples were assayed by LC-MS/MS using electrospray ionization. Analytical conditions are outlined in Appendix 1. The peak area response ratio (PARR) to internal standard was compared to the PARR at time 0 to determine the percent remaining at each time point. Half-lives and clearance were calculated using GraphPad software, fitting to a single-phase exponential decay equation.\nLiver Microsomes 0.5 mg/mL NADPH (cofactor) 1 mM\nPotassium Phosphate, pH 7.4 100 mM\nIntrinsic clearance (CLint) was calculated based on CLint=k/P, where k is the elimination constant and P is the protein concentration in the incubation."}, "[4]": {"conditions": "mice treated with only compound"}}, "note": "Entries after “also recorded” stand apart in the source; their conditions may differ. Read-outs that look alike come from different tables or passages of the source.", "data": [{"smiles": "COc1cccc(OC)c1C(=O)Nc1ccc(Cl)c(C(F)(F)F)c1", "note": "[RA010115]", "values": [{"measurement": "oTau- and oAβ-induced defects in contextual fear memory (freezing)", "setting": "mice [1]; 24 hrs after the electric shock", "value": "rescues"}, {"measurement": "Contextual fear memory performance, compound alone", "setting": "mice [1]; [4]", "value": "not impaired"}, {"measurement": "H3-Lys 27 EC50", "setting": "p300; EC50 for activators", "value": "NO ACTIVITY"}, {"measurement": "EC50", "setting": "p300; EC50 for activators, read-out: H3-Lys 18 EC50", "value": 137, "unit": "nM"}, {"measurement": "H3-Lys 27 IC50", "setting": "p300; IC50 for inhibitors", "value": "NO ACTIVITY"}, {"measurement": "oTau- and oAβ-induced defects in RAWM performance", "setting": "mice [2]; mice administered oAβ (200 nM) or oTau (500 nM), compound 5 mg/kg, 5 mg/kg", "value": "rescued the deficit; also recorded: rescues"}, {"measurement": "RAWM performance, compound alone", "setting": "mice [2]; [4]", "value": "not impaired"}, {"measurement": "microsomal CLint at 1 μM", "setting": "[3]; calculated value printed in parentheses behind the bound, read-out: CLint, value in parentheses", "value": 150, "unit": "µL/min/mg"}, {"measurement": "half-life at 1 μM", "setting": "[3]; fitted value printed in parentheses behind the bound, read-out: Half-life, value in parentheses", "value": 9.25, "unit": "min"}, {"measurement": "microsomal CLint at 1 μM", "setting": "[3]; read-out: CLint", "value": "> 139", "unit": "µL/min/mg"}, {"measurement": "half-life at 1 μM", "setting": "[3]; read-out: Half-life", "value": "< 10", "unit": "min"}, {"measurement": "% Remaining of Initial (n = 1) 0 min", "setting": "[3]; human liver microsomes, test article 1 μM, 0 min", "value": 100, "unit": "%"}, {"measurement": "% Remaining of Initial (n = 1) 10 min", "setting": "[3]; human liver microsomes, test article 1 μM, 10 min", "value": 47.7, "unit": "%"}, {"measurement": "% Remaining of Initial (n = 1) 20 min", "setting": "[3]; human liver microsomes, test article 1 μM, 20 min", "value": 21.1, "unit": "%"}, {"measurement": "% Remaining of Initial (n = 1) 30 min", "setting": "[3]; human liver microsomes, test article 1 μM, 30 min", "value": 11.4, "unit": "%"}, {"measurement": "% Remaining of Initial (n = 1) 60 min", "setting": "[3]; human liver microsomes, test article 1 μM, 60 min", "value": 2.59, "unit": "%"}]}]}
